From patent US12599610B2, “Solid dosage formulations of an orexin receptor antagonist” (Merck Sharp & Dohme LLC, priority 2012, dated 2026)
Like-named read-outs stand apart in the source and are kept apart here.

Assay: clinical food-effect pharmacokinetic study in healthy human men, fasted vs high-fat breakfast
Details: male, in vivo, po, 40 mg; for Tmax / Cmax / half-life: single oral 40 mg; for AUC(0-inf): single oral 40 mg dose of hot melt extrusion composition; for half-life: read-out: Apparent Terminal t1/2 (converted)
Experimental: The pharmacokinetic profile of this composition of suvorexant was also tested by administering a single dose of the formulation to healthy human men. […] In the second period of this clinical study, the 7 subjects in each treatment groups were crossed over and received the other treatment.
The fed/fasted GMR and 90% confidence intervals for AUC0-inf were 0.98 (0.90, 1.07).

Cc1ccc(-n2nccn2)c(C(=O)N2CCN(c3nc4cc(Cl)ccc4o3)CC[C@H]2C)c1 [Suvorexant, 5-chloro-2-{(5R)-5-methyl-4-[5-methyl-2-(2H-1,2,3-triazol-2-yl)benzoyl]-1,4-diazepan-1-yl}-1,3-benzoxazole]
Tmax (Tmax (Suvorexant Fed/Suvorexant Fasted), fed/fasted): 1.5 h | AUC(0-inf) (Fasted (8-hour fast)): 13.2 µM·h | AUC(0-inf) (Fed (standard high-fat breakfast)): 13 µM·h | Cmax (Fasted): 1 µM | half-life (Fasted): 10.9 h | Tmax (Fasted, read-out: Tmax): 2 h | Cmax (Fed (high-fat breakfast)): 1.1 µM | half-life (Fed (high-fat breakfast)): 11.8 h | Tmax (Fed (high-fat breakfast), read-out: Tmax): 3 h
